Measured values as given in US20170119790A1, “Agents, Uses and Methods” (CYTOGUIDE A/S, priority 2009, published 2017).
Entries after “also recorded” stand apart in the source; their conditions may differ. Like-named read-outs stand apart in the source and are kept apart here.

What was measured:
[1] = test system: collagen-induced arthritis; settings: for body weight after initiation of treatment: FIG. 47; for day of disease onset: mean±SD; for thymus weight compared to vehicle: at sacrifice
Procedure: The effect of dexamethasone on arthritis development in the rat CIA model was tested at three dosages (0.01, 0.1 and 1 mg/kg). Dexamethasone was administered intravenously on day 10 (day of disease onset), 13, 16 and 19. […] Treatment with vehicle (PBS/2.5% EtOH) served as negative control. Rats were sacrificed 21 days after immunization.
Collagen arthritis was induced in 9 weeks old female Lewis rats using a two-step immunization protocol. On day 0, all mice were immunized by intradermal injection of 1 mg/ml bovine type II collagen emulsified in Incomplete Freund's adjuvant at several sites at the back. Arthritis development was accelerated by an intradermal boost in the back and tail-base with 100 Sg bovine type II collagen in IFA on day 7. In order to perform immunization and intradermal boost, rats were anesthetized by inhalation of 3-4% isoflurane in a mixture of oxygen and N2O.
Rats were evaluated 6 times per week (once during weekends) for arthritis severity using a macroscopic scoring system of 0-4 for each paw as detailed below: • 0=no signs of arthritis • 0.5=unloading of the paw and/or light redness of ankle joint • 1=redness and mild swelling of the ankle joint • 2=redness and swelling of paw • 3=severe redness and swelling of entire paw including digits • 4=maximally swollen paw, often involvement of multiple joints and extending towards knee joint.
The total clinical score of an individual rat is defined as the sum of the clinical scores of all four paws for each day. At the end of the study, the cumulative arthritis score was calculated for each rat. This cumulative arthritis score is defined as the sum of the total clinical scores obtained from day 0 till day 21.
The day of disease is defined as the first day of three consecutive days on which a total arthritis score of more than 0 was observed.
The swelling of the hind paws was measured during weekdays with a laser scan micrometer (Mitutoyo, LSM-503S/6200). At the end of the study, the cumulative paw swelling was calculated for each rat as follows: a baseline value was determined by averaging the paw thickness values of day 0-9 when no signs of arthritis were visible. Next, increase in paw thickness was calculated by subtracting the baseline value from the paw thickness values obtained on day 10-21 (delta value). Cumulative paw swelling is defined as the sum of the delta paw thickness values from day 10 till 21.
Spleen, thymus and liver were isolated and weighed at sacrifice. Weights were normalized for body weight.
Collagen-induced arthritis (CIA) was induced in female Lewis rats (9 weeks of age) by intradermal injection of approximately 1 mg bovine type II collagen (Chondrex) emulsified in Incomplete Freund's adjuvant (IFA). The rats were immunized at several sites at the back under isoflurane anaesthesia (day 0) and boosted intradermal at the back and tail-base with 100 μg bovine type II collagen in IFA at day 7. The rats were scored 6 times per weeks for clinical signs of arthritis. Clinical severity of CIA was determined by swelling of individual joints and the number of affected joints in the front and rear paws. Each paw was scored from 1 to 4, so the maximum clinical score, including all four paws was 16.
A total of 20 rats were divided into five treatment groups (4 rats each). […] Changes in ankle size and body weight were monitored during the treatment process. On day 21, all animals were sacrificed and joint tissue, spleen, liver and thymus were dissected.

[2] = test system: LPS mediated TNFα stimulation; assay: Rat in vivo LPS model; set-up: species or system Lewis rats
[3] = test system: LPS mediated TNFα stimulation of rat macrophages / spleen cells; assay: Rat in vitro LPS model; assay type: cell-based; settings: 1 μg/ml, LPS 20 hours, FIG. 37
Procedure: Rat or mouse peritoneal or spleen cell suspensions were prepared from female Lewis rats (Harlan) or BalB/cA mice (Taconic). Human mononuclear cells were isolated from buffycoats (Skejby University Hospital) as described above. The purified cells were suspended in RPMI medium supplemented with 10% FCS and 2 mM L-glutamine and cultured (2×10^5 per well) overnight in 96-well flat bottomed plates (125 μl per well) at 37° C. and 5% CO2. Glucocorticoid conjugates (Example 8), free glucocorticoids or PBS were serial diluted in supplemented RPMI medium and added (100 μl) to the overnight cell cultures at final concentrations ranging from 1-10^−7 μg glucocorticoid/ml. After incubation for a specific time ranging from 30 min-24 hours, 150 μl supernatant was carefully aspirated and 150 μl supplemented RPMI medium added to the wells before further incubation overnight. Each incubation condition was tested in duplicates or triplicates. After 16-20 hours, the cells were challenged with lipopolysaccharide (LPS) (250 ng/ml) for 4 hours before supernatant was aspirated from each well and frozen at -20° C.

[4] = test system: LPS mediated TNFα stimulation; settings: serum 2 hours post LPS challenge, FIG. 42

For `C[C@@H]1C[C@H]2[C@@H]3CCC4=CC(=O)C=C[C@]4(C)[C@@]3(F)[C@@H](O)C[C@]2(C)[C@@]1(O)C(=O)CO` [dexamethasone], the “cumulative arthritis score reduced with respect to the vehicle group” value (“cumulative arthritis score reduced” below) ([1]; 0.01 mg/kg) was 39%, the “day on which disease incidence of 100% was reached” value ([1]; 0.01 mg/kg) was 14 days and the “body weight after initiation of treatment” value ([1]; 0.01 mg/kg) was “a certain degree of body weight loss”. The “cumulative arthritis score reduced” value ([1]; 0.1 mg/kg) was 69%, the “day of disease onset” value ([1]; 0.1 mg/kg i.v. day 10, 13, 16, 19) was 13.8 ± 1.0 days and the “thymus weight compared to vehicle” value ([1]; 0.1 mg/kg) was “significantly decreased; also recorded: significantly lower”. For the same compound, the “cumulative arthritis score reduced” value ([1]; 1 mg/kg) was 91%, the “day of disease onset” value ([1]; 1 mg/kg i.v. day 10, 13, 16, 19) was 18.3 ± 2.1 days and the “thymus weight compared to vehicle” value ([1]; 1 mg/kg) was “significantly decreased”. The “spleen and liver weights compared to vehicle” value ([1]; 0.01, 0.1 and 1 mg/kg groups) was “No significant differences”, the “body weight after initiation of treatment” value ([1]; 0.01, 0.1 and 1 mg/kg groups) was “decreased gradually” and the “spleen and thymus weight compared with rats injected with ED2-dexamethasone” value ([2]; 2 days post LPS injection, FIG. 39B and C) was “significantly lower”. For the same compound, the “level of TNFα lower compared to vehicle” value ([2]; i.v. 20 hours before LPS, serum 2 hours after LPS, FIG. 39A) was 2 fold, the “TNFα concentration higher in supernatants of macrophages stimulated without the agent (ED2 or PBS)” value [3] was “approximately 10 fold” and the “TNFα level lower compared to vehicle” value [4] was 2 fold.
